Reference: article PMC12332667, “Role of Structural Modifications in Peptidomimetic Compounds as Potential Antimicrobial Agents against Staphylococcus aureus and Streptococcus pyogenes: Balancing Bioavailability, Safety, and Antimicrobial Activity” (ACS Omega, 2025)
≈ marks a conversion by molar mass, not a printed value. Where “and” joins values, the source holds several entries; their conditions need not be identical. Equal entries are not always repeated.

Experiments:
S. schleiferi c.i. = assay: MIC/MBC broth microdilution, S. schleiferi; format: cell-based, Staphylococcus schleiferi
Method in brief: (§1)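 Bacteria inoculated at about 10^5 CFU/mL in BHI broth and incubated 18 h at 37 °C with serial dilutions of peptidomimetics, NCCLS microdilution format. MBC taken as lowest concentration leaving no more than 3 colonies (≥99.9% kill); MIC as lowest concentration without obvious growth (≥90% of untreated); solvent controls included.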

[1] = tested on: K. pneumoniae ATCC 700603; assay: MIC/MBC broth microdilution, K. pneumoniae; format: cell-based
Method in brief: as §1

P. aeruginosa ATCC 10145 = assay: MIC/MBC broth microdilution, P. aeruginosa; format: cell-based
Method in brief: as §1

[2] = tested on: immortalized human HaCaT keratinocytes; assay: XTT cell proliferation assay, keratinocytes; format: cell-based; details: XTT, 48 and 72 h, 0.01–150 μg/mL
Method in brief: (§2)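 Proliferation was read as XTT absorbance at 490 nm after 4 h of reagent incubation, following 48 or 72 h of peptide exposure in serum-free HG-DMEM (37 °C, 5% CO2). The 72 h arm included a half-medium change with second peptide dose at 48 h. Significance by Mann–Whitney U, p ≤ 0.05.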

S. mutans c.i. = assay: MIC/MBC broth microdilution, S. mutans; format: cell-based, Streptococcus mutans
Method in brief: as §1

E. faecalis c.i. = assay: MIC/MBC broth microdilution, E. faecalis; format: cell-based, Enterococcus faecalis
Method in brief: as §1

E. coli ATCC 25922 = assay: MIC/MBC broth microdilution, E. coli; format: cell-based, Escherichia coli
Method in brief: as §1

S. agalactiae ATCC 27956 = assay: MIC/MBC broth microdilution, S. agalactiae; format: cell-based, Streptococcus agalactiae; details: S. agalactiae
Method in brief: as §1

S. aureus ATCC 43300 = assay: MIC/MBC broth microdilution, S. aureus; format: cell-based, Staphylococcus aureus; details: S. aureus
S. pyogenes ATCC 19615 = assay: MIC/MBC broth microdilution, S. pyogenes; format: cell-based, Streptococcus pyogenes; details: S. pyogenes
Method in brief: as §1

[3] = tested on: human dermal fibroblast cell line (46BR.1N); assay: XTT cell proliferation assay, fibroblasts; format: cell-based; details: XTT, 48 and 72 h, 0.01–150 μg/mL
Method in brief: as §2

P. vulgaris ATCC 6896 = assay: MIC/MBC broth microdilution, P. vulgaris; format: cell-based, Proteus vulgaris
Method in brief: as §1

[4] = Hydrophobicity by reverse-phase chromatography; format: physicochemical; details: acetonitrile content in the mobile phase at the retention time
Source text: Reverse-phase chromatography was employed to assess the hydrophobicity characteristics of the peptidomimetics. Hydrophobicity was quantified by determining the acetonitrile content in the mobile phase at the retention time of a peptidyl derivative (Table S2). The least hydrophobic compound (40% acetonitrile) was A-198, which aligns with the calculations of hydrophobicity by SwissADME and pkCSM (Table ). Next in the hydrophobicity sequence were A-197, A-220, A-219, A-174, and A-221, eluting with 42.5-43.9% of acetonitrile. Then there were followed by […], and A-179, with the acetonitrile percentage of 44.8-49.8. The compounds A-176, A-20, A-152, A-134, and A-210 needed over 50% of acetonitrile to be eluted from the column.

fibroblasts (46BR.1N) = assay: LDH cytotoxicity test, fibroblasts; format: cell-based
Method in brief: (§3)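 Cytotoxicity as LDH release after 48 h serum-free treatment (50, 100, 150 μg/mL peptidomimetics) of 46BR.1N fibroblasts or HaCaT keratinocytes seeded at 5000 per well. Absorbance 450 nm; untreated set as 0% and Triton X-100 1% as maximal release; Mann–Whitney U test, p ≤ 0.05.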

[5] = tested on: immortalized human keratinocytes (HaCaT); assay: LDH cytotoxicity test, keratinocytes; format: cell-based
Method in brief: as §3

S. cohnii c.i. = assay: MIC/MBC broth microdilution, S. cohnii; format: cell-based, Staphylococcus cohnii
Method in brief: as §1

[6] = 48 h, 50, 100 and 150 μg/mL, vs 1% Triton X-100

`C=CCC(=O)NC[C@@H](NC(=O)[C@H](CC(C)C)NC(=O)[C@H](CCCNC(=N)N)NC(=O)OCc1ccccc1)C(C)C` [Compound A-209] gave an MBC (S. schleiferi c.i.; H2O) of 512 µg/mL (≈ 892 µM), an MIC (S. schleiferi c.i.; H2O) of 256 µg/mL (≈ 446 µM) and an MBC (S. schleiferi c.i.; water additive DMSO) of 512 µg/mL (≈ 892 µM). For the same molecule, the MIC (S. schleiferi c.i.; water additive DMSO) was 256 µg/mL (≈ 446 µM), the MBC (S. schleiferi c.i.; water additive EtOH) was 512 µg/mL (≈ 892 µM) and the MIC (S. schleiferi c.i.; water additive EtOH) was 256 µg/mL (≈ 446 µM). For the same molecule, the MIC ([1]; H2O) was > 512 µg/mL, the MIC ([1]; water additive DMSO) was > 512 µg/mL and the MIC ([1]; water additive EtOH) was > 512 µg/mL. The MIC (P. aeruginosa ATCC 10145; H2O) was > 512 µg/mL, the MIC (P. aeruginosa ATCC 10145; water additive DMSO) was > 512 µg/mL and the MIC (P. aeruginosa ATCC 10145; water additive EtOH) was > 512 µg/mL. For the same molecule, the “effect on proliferation, in words” value [2] was “did not exert any negative impact”, the MBC (S. mutans c.i.; H2O) was 256 µg/mL (≈ 446 µM) and the MBC (S. mutans c.i.; water additive DMSO) was 256 µg/mL (≈ 446 µM). The MBC (S. mutans c.i.; water additive EtOH) was 256 µg/mL (≈ 446 µM), the MIC (E. faecalis c.i.; H2O) was > 512 µg/mL and the MIC (E. faecalis c.i.; water additive DMSO) was > 512 µg/mL. The MIC (E. faecalis c.i.; water additive EtOH) was > 512 µg/mL, the MIC (E. coli ATCC 25922; H2O) was > 512 µg/mL and the MIC (E. coli ATCC 25922; water additive DMSO) was > 512 µg/mL. The MIC (E. coli ATCC 25922; water additive EtOH) was > 512 µg/mL, the MIC (S. agalactiae ATCC 27956; H2O) was > 512 µg/mL and the MIC (S. agalactiae ATCC 27956; water additive DMSO) was > 512 µg/mL. For the same molecule, the MIC (S. agalactiae ATCC 27956; water additive EtOH) was > 512 µg/mL, the MIC (S. aureus ATCC 43300; H2O) was > 512 µg/mL and the MIC (S. aureus ATCC 43300; water additive DMSO) was > 512 µg/mL. For the same molecule, the MIC (S. aureus ATCC 43300; water additive EtOH) was > 512 µg/mL, the MIC (S. pyogenes ATCC 19615; H2O) was > 512 µg/mL and the MIC (S. pyogenes ATCC 19615; water additive DMSO) was > 512 µg/mL. The MIC (S. pyogenes ATCC 19615; water additive EtOH) was > 512 µg/mL, the “effect on proliferation, in words” value [3] was “did not exert any negative impact” and the MIC (P. vulgaris ATCC 6896; H2O) was > 512 µg/mL. For the same molecule, the MIC (P. vulgaris ATCC 6896; water additive DMSO) was > 512 µg/mL, the MIC (P. vulgaris ATCC 6896; water additive EtOH) was > 512 µg/mL and the “% AcCN (acetonitrile required for elution from the column)” value [4] was 49.6% and 44.8–49.8%. The “cytotoxicity (LDH)” value (fibroblasts (46BR.1N); [6]) was 10–15%, the “concentration at which cytotoxic effect starts” value (fibroblasts (46BR.1N); LDH, 48 h) was > 150 µg/mL and 150 µg/mL and the “cytotoxicity (LDH)” value [5, 6] was 10–15%. The “concentration at which cytotoxic effect starts” value ([5]; LDH, 48 h) was > 150 µg/mL and 150 µg/mL, the MIC (S. cohnii c.i.; H2O) was > 512 µg/mL and the MIC (S. cohnii c.i.; water additive DMSO) was > 512 µg/mL. For the same molecule, the MIC (S. cohnii c.i.; water additive EtOH) was > 512 µg/mL.

With `CC(C)[C@@H](CNC(=O)/C=C/c1ccccc1)NC(=O)[C@H](Cc1c[nH]cn1)NC(=O)[C@H](CCCCN)NC(=O)OCc1ccccc1` [Compound A-174] the MIC (S. schleiferi c.i.; H2O) was > 512 µg/mL, the MIC (S. schleiferi c.i.; water additive DMSO) was > 512 µg/mL and the MBC (S. schleiferi c.i.; water additive EtOH) was 512 µg/mL (≈ 810 µM). For the same molecule, the MIC (S. schleiferi c.i.; water additive EtOH) was 512 µg/mL (≈ 810 µM), the MIC ([1]; H2O) was > 512 µg/mL and the MIC ([1]; water additive DMSO) was > 512 µg/mL. The MIC ([1]; water additive EtOH) was > 512 µg/mL, the MIC (P. aeruginosa ATCC 10145; H2O) was > 512 µg/mL and the MIC (P. aeruginosa ATCC 10145; water additive DMSO) was > 512 µg/mL. The MBC (P. aeruginosa ATCC 10145; water additive EtOH) was > 512 µg/mL, the MIC (P. aeruginosa ATCC 10145; water additive EtOH) was 512 µg/mL (≈ 810 µM) and the “effect on proliferation, in words” value [2] was “did not exert any negative impact”. For the same molecule, the MIC (S. mutans c.i.; H2O) was > 512 µg/mL, the MIC (S. mutans c.i.; water additive DMSO) was > 512 µg/mL and the MIC (S. mutans c.i.; water additive EtOH) was > 512 µg/mL. For the same molecule, the MIC (E. faecalis c.i.; H2O) was > 512 µg/mL, the MIC (E. faecalis c.i.; water additive DMSO) was > 512 µg/mL and the MIC (E. faecalis c.i.; water additive EtOH) was > 512 µg/mL. For the same molecule, the MIC (E. coli ATCC 25922; H2O) was > 512 µg/mL, the MIC (E. coli ATCC 25922; water additive DMSO) was > 512 µg/mL and the MIC (E. coli ATCC 25922; water additive EtOH) was > 512 µg/mL. The MBC (S. agalactiae ATCC 27956; H2O) was 512 µg/mL (≈ 810 µM), the MIC (S. agalactiae ATCC 27956; H2O) was 512 µg/mL (≈ 810 µM) and the MBC (S. agalactiae ATCC 27956; water additive DMSO) was 512 µg/mL (≈ 810 µM). The MIC (S. agalactiae ATCC 27956; water additive DMSO) was 512 µg/mL (≈ 810 µM), the MBC (S. agalactiae ATCC 27956; water additive EtOH) was 512 µg/mL (≈ 810 µM) and the MIC (S. agalactiae ATCC 27956; water additive EtOH) was 256 µg/mL (≈ 405 µM). It also gave an MBC (S. aureus ATCC 43300; H2O) of 512 µg/mL (≈ 810 µM), an MIC (S. aureus ATCC 43300; H2O) of 256 µg/mL (≈ 405 µM) and an MBC (S. aureus ATCC 43300; water additive DMSO) of 512 µg/mL (≈ 810 µM). The MIC (S. aureus ATCC 43300; water additive DMSO) was 512 µg/mL (≈ 810 µM), the MBC (S. aureus ATCC 43300; water additive EtOH) was 512 µg/mL (≈ 810 µM) and the MIC (S. aureus ATCC 43300; water additive EtOH) was 512 µg/mL (≈ 810 µM). For the same molecule, the MBC (S. pyogenes ATCC 19615; H2O) was 256 µg/mL (≈ 405 µM), the MBC (S. pyogenes ATCC 19615; water additive DMSO) was 256 µg/mL (≈ 405 µM) and the MBC (S. pyogenes ATCC 19615; water additive EtOH) was 256 µg/mL (≈ 405 µM). The “effect on proliferation, in words” value [3] was “did not exert any negative impact”, the MIC (P. vulgaris ATCC 6896; H2O) was > 512 µg/mL and the MIC (P. vulgaris ATCC 6896; water additive DMSO) was > 512 µg/mL. For the same molecule, the MBC (P. vulgaris ATCC 6896; water additive EtOH) was > 512 µg/mL, the MIC (P. vulgaris ATCC 6896; water additive EtOH) was 512 µg/mL (≈ 810 µM) and the “% AcCN (acetonitrile required for elution from the column)” value [4] was 42.9%. For the same molecule, the “cytotoxicity (LDH), in words” value (fibroblasts (46BR.1N); 48 h, 50-150 μg/mL) was “no cytotoxicity”, the “cytotoxicity (LDH), in words” value ([5]; 48 h, 50-150 μg/mL) was “no cytotoxicity” and the MBC (S. cohnii c.i.; H2O) was 256 µg/mL (≈ 405 µM). For the same molecule, the MIC (S. cohnii c.i.; H2O) was 256 µg/mL (≈ 405 µM), the MBC (S. cohnii c.i.; water additive DMSO) was 256 µg/mL (≈ 405 µM) and the MBC (S. cohnii c.i.; water additive EtOH) was 256 µg/mL (≈ 405 µM).
